Reference: article PMC12383145, “Fluorescent Peptides Internalize HeLa Cells and Kill Multidrug-Resistant Clinical Bacterial Isolates” (Antibiotics, 2025)
Residues, ends and D or L forms follow the SMILES beside them. *: point of attachment. RhodamineB = CCN(CC)c1ccc2c(-c3ccccc3C(=O)*)c3ccc(=[N+](CC)CC)cc-3oc2c1

Tests used:
Type in all cases: cell-based
[1] = system: S. aureus clinical isolate 11719; details: clinical isolate 11719, 24 h
[2] = system: E. faecalis clinical isolate 213; details: clinical isolate 213, 24 h
[3] = system: S. aureus clinical isolate 124653; details: clinical isolate 124653, 24 h
[4] = system: E. faecalis clinical isolate 82; details: clinical isolate 82, 24 h
[5] = system: E. faecalis clinical isolate 179; details: clinical isolate 179, 24 h
[6] = system: E. coli clinical isolate 129797 (resistant); details: clinical isolate 129797 (resistant, 24 h)
[7] = system: E. coli clinical isolate 301755 (MDR); details: clinical isolate 301755 (MDR, 24 h)
[8] = system: S. aureus clinical isolate 109095; details: clinical isolate 109095, 24 h
[9] = system: E. coli clinical isolate 1004 (susceptible); details: clinical isolate 1004 (susceptible, 24 h)
[10] = system: MCF-7 cells; assay: MTT cytotoxicity assay in MCF-7 cells; details: 200 µg/mL, 2 h
Experimental: An MTT assay was performed in MCF-7 cells with FAM-1 (FAM-RWQWRWQWR) and RhB-1 (RhB-RWQWRWQWR) peptides following a 2 h treatment.

[11] = system: HeLa cells; assay: Fluorescence confocal microscopy, colocalization analysis (ImageJ JaCoP); details: 2 h at IC50, colocalization with SMA antibody
Experimental: The possible cellular distribution of the peptides was determined by colocalization analysis of the Rhodamine B fluorescent signal, with fluorophores used to stain the nucleus (Hoechst 33342) and cytoplasm components (SMA antibody). ImageJ 1.54f analysis software and the JaCoP plugin were used to analyze signal colocalization.
HeLa cells (>70% confluence) were seeded on sterile round coverslips in 24-well plates with DMEM + 5% FBS and incubated at 37 °C, 5% CO2 for 24 h. After adhesion, the medium was replaced, and cells were treated with fluorescent peptides at their IC50 for 2 h. Then, cells were washed with PBS under constant stirring (3 × 10 min). Cellular fixation was performed using a solution containing 2% paraformaldehyde and 1% sucrose 100 mM in PBS for 30 min, followed by PBS washes (2 × 10 min). Permeabilization was carried out using a solution of 0.1% Triton X-100 and 20 mM glycine in PBS for 10 min, followed by two additional PBS washes. Blocking was performed with 1% BSA and 20 mM glycine in PBS for 10 min. […] For the fluorescence lecture, 5 µL of Fluoromount mounting medium was applied to the slide, and the coverslip containing the cells was inverted onto the medium. Slides were allowed to be dry-protected from light, and cells were visualized using a Leica DMi8 fluorescence confocal microscope. […]

Minimal inhibitory concentration (MIC) [1]: 52 µM
Minimal inhibitory concentration (MIC) [2]: > 105 µM
Minimal inhibitory concentration (MIC) [3]: 105 µM
Minimal inhibitory concentration (MIC) [4]: 26 µM
Minimal inhibitory concentration (MIC) [5]: > 105 µM
Minimal inhibitory concentration (MIC) [6]: > 105 µM
Minimal inhibitory concentration (MIC) [7]: > 105 µM
Minimal inhibitory concentration (MIC) [8]: 26 µM
Minimal inhibitory concentration (MIC) [9]: > 105 µM
SMILES: CCN(CC)c1ccc2c(-c3ccccc3C(=O)N[C@@H](CCCNC(=N)N)C(=O)N[C@@H](Cc3c[nH]c4ccccc34)C(=O)N[C@@H](CCC(N)=O)C(=O)N[C@@H](Cc3c[nH]c4ccccc34)C(=O)N[C@@H](CCCNC(=N)N)C(=O)N[C@@H](Cc3c[nH]c4ccccc34)C(=O)N[C@@H](CCC(N)=O)C(=O)N[C@@H](Cc3c[nH]c4ccccc34)C(=O)N[C@@H](CCCNC(=N)N)C(N)=O)c3ccc(=[N+](CC)CC)cc-3oc2c1 [RhB-1, RhB-RWQWRWQWR] (RhodamineB-RWQWRWQWR-NH2)
Minimal bactericidal concentration (MBC) [1]: 105 µM
Minimal bactericidal concentration (MBC) [2]: > 105 µM
Minimal bactericidal concentration (MBC) [3]: 105 µM
Minimal bactericidal concentration (MBC) [4]: 105 µM
Minimal bactericidal concentration (MBC) [5]: > 105 µM
Minimal bactericidal concentration (MBC) [6]: > 105 µM
Minimal bactericidal concentration (MBC) [7]: > 105 µM
Minimal bactericidal concentration (MBC) [8]: 105 µM
Minimal bactericidal concentration (MBC) [9]: > 105 µM
cell population remaining [10]: 8%
cellular localization [11]: internalized and distributed in the cytoplasm
